Assay results from patent publication US20140294863A1, “SERUM ALBUMIN BINDING PEPTIDES FOR TUMOR TARGETING” (GENENTECH, INC., priority 2002, published 2014).
Where a SMILES comes first, the peptide text is derived from it. Bridges are numbered along the chain shown (N, C = ends). Where no end group is shown, it is not given here.

Experiments:
Set-up in all cases: purchased Sigma
rabbit albumin [1] = target: T1, rabbit albumin (Oryctolagus cuniculus, UniProt P49065); assay: Direct Binding ELISA, AB.Fab variants on immobilized rabbit albumin; conditions: average and SD of at least 3 determinations
T1 sequence (P49065 25-608): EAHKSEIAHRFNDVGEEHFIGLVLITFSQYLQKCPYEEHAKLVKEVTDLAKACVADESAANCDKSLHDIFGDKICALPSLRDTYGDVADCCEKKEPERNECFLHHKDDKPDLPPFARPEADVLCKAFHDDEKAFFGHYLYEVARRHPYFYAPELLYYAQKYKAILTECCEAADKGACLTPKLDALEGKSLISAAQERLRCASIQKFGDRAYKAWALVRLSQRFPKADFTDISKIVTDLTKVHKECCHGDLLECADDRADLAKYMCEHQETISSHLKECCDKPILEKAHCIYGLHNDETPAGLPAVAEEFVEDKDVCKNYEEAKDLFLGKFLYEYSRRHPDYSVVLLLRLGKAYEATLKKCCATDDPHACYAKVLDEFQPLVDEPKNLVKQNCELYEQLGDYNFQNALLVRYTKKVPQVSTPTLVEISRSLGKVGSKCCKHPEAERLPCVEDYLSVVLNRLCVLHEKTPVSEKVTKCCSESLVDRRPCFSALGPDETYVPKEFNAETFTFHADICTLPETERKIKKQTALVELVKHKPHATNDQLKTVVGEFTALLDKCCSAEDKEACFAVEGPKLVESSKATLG
Description: (§1) Mouse, rat, or rabbit albumin (Sigma, St. Louis, Mo.) were immobilized onto NUNC Maxisorp™ 96-well plates at 2 ug/ml overnight at 4° C. […] AB.Fab variants were serially diluted in binding buffer and added at 100 μl per well to the immobilized albumin for 30 minutes at 25° C. Unbound AB.Fab variant was removed by washing wells with 0.05% PBS/Tween® 20 and bound AB.Fab variant was detected with goat anti-human Fab′2-HRP for 1 hour at 25° C. Bound HRP was measured with a solution of tetramethylbenzidine (TMB)/H202. After 15 minutes, the reaction was quenched by the addition of 1M phosphoric acid.
(§2) Initially we explored binding of the AB.Fab variants to immobilized albumin using a Direct Binding ELISA.

rat albumin [2] = target: T2, rat albumin (Rattus norvegicus, UniProt P02770); assay: Direct Binding ELISA, AB.Fab variants on immobilized rat albumin; conditions: average and SD of at least 3 determinations
T2 sequence (P02770 25-608): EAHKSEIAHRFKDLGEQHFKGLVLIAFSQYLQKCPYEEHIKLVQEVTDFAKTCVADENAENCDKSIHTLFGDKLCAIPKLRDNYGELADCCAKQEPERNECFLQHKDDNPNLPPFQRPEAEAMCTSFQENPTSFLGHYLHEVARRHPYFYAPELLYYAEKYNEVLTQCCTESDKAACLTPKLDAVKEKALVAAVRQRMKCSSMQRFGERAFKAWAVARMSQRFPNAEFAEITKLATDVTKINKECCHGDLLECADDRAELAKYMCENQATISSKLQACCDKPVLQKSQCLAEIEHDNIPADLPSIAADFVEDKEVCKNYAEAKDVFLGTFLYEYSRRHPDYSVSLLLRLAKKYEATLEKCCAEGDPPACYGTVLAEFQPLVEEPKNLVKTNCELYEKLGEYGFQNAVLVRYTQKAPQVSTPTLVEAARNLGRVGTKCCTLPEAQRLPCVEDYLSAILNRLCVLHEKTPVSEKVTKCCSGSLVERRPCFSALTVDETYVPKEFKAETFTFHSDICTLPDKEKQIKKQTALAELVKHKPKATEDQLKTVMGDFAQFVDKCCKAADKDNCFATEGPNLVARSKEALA
Description: as §1, §2

rabbit albumin [3] = target: T1, rabbit albumin; assay: SA08b binding assay (peptide competition ELISA), rabbit albumin; conditions: for effect on SA08b peptide binding to rabbit albumin: concentrations of up to 100 μM, data not shown; for improvement in IC50 relative to core sequence of about 10 amino acids: rabbit albumin
Source text: (§3) Plates were blocked as described above.
(§4) Peptides corresponding to identified phage sequences were synthesized and their affinity for rat, rabbit or mouse albumin measured using the SA08b binding assay.

rat albumin [4] = target: T2, rat albumin; assay: SA08b binding assay (peptide competition ELISA), rat albumin; conditions: concentrations of up to 100 μM; data not shown
Source text: as §3, §4

EC50 (rabbit albumin [1]) [nM] | Compound | improvement in IC50 relative to core sequence of about 10 amino acids (rabbit albumin [3]) | other results
500 ± 50 | 4D5-H4: AB.Fab variant of Fab4D5 with shortened albumin-binding peptide on heavy chain, no GGGS linker (Table 12) (DICLPRWGCLWED; disulfide 3-9 (inferred); also: part of Fab heavy chain) |  | 
500 ± 50 | 4D5-H8: AB.Fab variant of Fab4D5 with shortened albumin-binding peptide on heavy chain, no GGGS linker (Table 12) (IEDICLPRWGCLWE; disulfide 5-11 (inferred); also: part of Fab heavy chain) |  | 
> 2000 | 4D5-H10: AB.Fab variant made by deletion in 4D5-H4 (Table 12) (DICLPRWGCLW; disulfide 3-9 (inferred); also: part of Fab heavy chain) |  | EC50 (rat albumin [2]): 8 ± 0.003 nM
 | [Cl][Cu][Cl] [CuCl2, reference compound] |  | effect on SA08b peptide binding to rabbit albumin (rabbit albumin [3]): no effect; effect on SA08b peptide binding to rat albumin (rat albumin [4]): no effect
 | N[C@@H](Cc1c[nH]c2ccccc12)C(=O)O [L-tryptophan, reference compound] |  | effect on SA08b peptide binding to rabbit albumin (rabbit albumin [3]): no effect; effect on SA08b peptide binding to rat albumin (rat albumin [4]): no effect
 | CC[C@H](C)[C@H](NC(=O)[C@H](CC(C)C)NC(=O)[C@H](CCCNC(=N)N)NC(C)=O)C(=O)N[C@@H](CCC(=O)O)C(=O)N[C@@H](CC(=O)O)C(=O)N[C@H](C(=O)N[C@H]1CSSC[C@@H](C(=O)N[C@@H](CC(C)C)C(=O)N[C@@H](Cc2c[nH]c3ccccc23)C(=O)N[C@@H](CCC(=O)O)C(=O)N[C@@H](CC(=O)O)C(N)=O)NC(=O)CNC(=O)[C@H](Cc2c[nH]c3ccccc23)NC(=O)[C@H](CCCNC(=N)N)NC(=O)[C@@H]2CCCN2C(=O)[C@H](CC(C)C)NC1=O)[C@@H](C)CC [SA22] (Ac-RLIEDICLPRWGCLWED-NH2; disulfide 7-13) | 60 fold | 
 | CC[C@H](C)[C@H](NC(=O)[C@H](CC(=O)O)NC(C)=O)C(=O)N[C@H]1CSSC[C@@H](C(=O)N[C@@H](CC(C)C)C(=O)N[C@@H](Cc2c[nH]c3ccccc23)C(=O)N[C@@H](CCC(=O)O)C(=O)N[C@@H](CC(=O)O)C(N)=O)NC(=O)CNC(=O)[C@H](Cc2c[nH]c3ccccc23)NC(=O)[C@H](CCCNC(=N)N)NC(=O)[C@@H]2CCCN2C(=O)[C@H](CC(C)C)NC1=O [SA26, Ac DICLPRWGCLWED NH2] (Ac-DICLPRWGCLWED-NH2; disulfide 3-9) | about 8.6 fold | 
 | CC[C@H](C)[C@H](NC(=O)[C@H](CC(C)C)NC(=O)[C@H](CCCNC(=N)N)NC(C)=O)C(=O)N[C@@H](CCC(=O)O)C(=O)N[C@@H](CC(=O)O)C(=O)N[C@H](C(=O)N[C@H]1CSSC[C@@H](C(=O)N[C@@H](CC(C)C)C(N)=O)NC(=O)CNC(=O)[C@H](Cc2c[nH]c3ccccc23)NC(=O)[C@H](CCCNC(=N)N)NC(=O)[C@@H]2CCCN2C(=O)[C@H](CC(C)C)NC1=O)[C@@H](C)CC [SA33] (Ac-RLIEDICLPRWGCL-NH2; disulfide 7-13) | approximately 6 fold | 
 | CC[C@H](C)[C@H](NC(=O)[C@H](CC(C)C)NC(=O)[C@H](CCCNC(=N)N)NC(C)=O)C(=O)N[C@@H](CCC(=O)O)C(=O)N[C@@H](CC(=O)O)C(=O)N[C@H](C(=O)N[C@H]1CSSC[C@@H](C(N)=O)NC(=O)CNC(=O)[C@H](Cc2c[nH]c3ccccc23)NC(=O)[C@H](CCCNC(=N)N)NC(=O)[C@@H]2CCCN2C(=O)[C@H](CC(C)C)NC1=O)[C@@H](C)CC [SA35] (Ac-RLIEDICLPRWGC-NH2; disulfide 7-13) |  | IC50 (rabbit albumin [3]): > 250000 nM
